Assay results as given in US8637484B2, “Modulation of growth hormone receptor expression and insulin-like growth factor expression” (Antisense Therapeutic Limited, priority 2003, dated 2014).
In the oligonucleotide strings, read from the 5' end, every base follows the letter of its sugar. An asterisk marks phosphorothioate; unmarked linkages are phosphodiester. Other units and linkages are bracketed, terminal groups are in braces. A string of capitals states the bases alone. e = 2'-O-(2-methoxyethyl) (MOE); [5mC] = 5-methylcytosine; d = 2'-deoxy (DNA)

Test system: human growth hormone receptor mRNA
Assay: Inhibition of human growth hormone receptor mRNA levels in MCF7 cells, quantitative real-time PCR
Format: cell-based
Parameters: concentration or dose not given beside the values
Details: averages from three experiments
Procedure: The human breast carcinoma cell line MCF-7 was obtained from the American Type Culture Collection (Manassas, Va.). MCF-7 cells were routinely cultured in DMEM low glucose (Gibco/Life Technologies, Gaithersburg, Md.) supplemented with 10% fetal calf serum (Gibco/Life Technologies, Gaithersburg, Md.). Cells were routinely passaged by trypsinization and dilution when they reached 90% confluence. Cells were seeded into 96-well plates (Falcon-Primaria #3872) at a density of 7000 cells/well for use in RT-PCR analysis.
When cells reached 65-75% confluency, they were treated with oligonucleotide. For cells grown in 96-well plates, wells were washed once with 100 μL OPTI-MEM™-1 reduced-serum medium (Invitrogen Corporation, Carlsbad, Calif.) and then treated with 130 μL of OPTI-MEM™-1 containing 3.75 μg/mL LIPOFECTIN™ (Invitrogen Corporation, Carlsbad, Calif.) and the desired concentration of oligonucleotide. Cells are treated and data are obtained in triplicate. After 4-7 hours of treatment at 37° C., the medium was replaced with fresh medium. Cells were harvested 16-24 hours after oligonucleotide treatment.
Total RNA was isolated using an RNEASY 96™ kit and buffers purchased from Qiagen Inc. (Valencia, Calif.) following the manufacturer's recommended procedures. Briefly, for cells grown on 96-well plates, growth medium was removed from the cells and each well was washed with 200 μL cold PBS. 150 μL Buffer RLT was added to each well and the plate vigorously agitated for 20 seconds. 150 μL of 70% ethanol was then added to each well and the contents mixed by pipetting three times up and down. The samples were then transferred to the RNEASY 96™ well plate attached to a QIAVAC™ manifold fitted with a waste collection tray and attached to a vacuum source. Vacuum was applied for 1 minute. 500 μL of Buffer RW1 was added to each well of the RNEASY 96™ plate and incubated for 15 minutes and the vacuum was again applied for 1 minute. An additional 500 μL of Buffer RW1 was added to each well of the RNEASY 96™ plate and the vacuum was applied for 2 minutes. 1 mL of Buffer RPE was then added to each well of the RNEASY 96™ plate and the vacuum applied for a period of 90 seconds. The Buffer RPE wash was then repeated and the vacuum was applied for an additional 3 minutes. The plate was then removed from the QIAVAC™ manifold and blotted dry on paper towels. The plate was then re-attached to the QIAVAC™ manifold fitted with a collection tube rack containing 1.2 mL collection tubes. RNA was then eluted by pipetting 140 μL of RNAse free water into each well, incubating 1 minute, and then applying the vacuum for 3 minutes.
Quantitation of growth hormone receptor mRNA levels was accomplished by real-time quantitative PCR using the ABI PRISM™ 7600, 7700, or 7900 Sequence Detection System (PE-Applied Biosystems, Foster City, Calif.) according to manufacturer's instructions. This is a closed-tube, non-gel-based, fluorescence detection system which allows high-throughput quantitation of polymerase chain reaction (PCR) products in real-time. As opposed to standard PCR in which amplification products are quantitated after the PCR is completed, products in real-time quantitative PCR are quantitated as they accumulate. This is accomplished by including in the PCR reaction an oligonucleotide probe that anneals specifically between the forward and reverse PCR primers, and contains two fluorescent dyes. A reporter dye (e.g., FAM or JOE, obtained from either PE-Applied Biosystems, Foster City, Calif., Operon Technologies Inc., Alameda, Calif. or Integrated DNA Technologies Inc., Coralville, Iowa) is attached to the 5′ end of the probe and a quencher dye (e.g., TAMRA, obtained from either PE-Applied Biosystems, Foster City, Calif., Operon Technologies Inc., Alameda, Calif. or Integrated DNA Technologies Inc., Coralville, Iowa) is attached to the 3′ end of the probe. When the probe and dyes are intact, reporter dye emission is quenched by the proximity of the 3′ quencher dye. […]

Going from “227452 (antisense eT*e[5mC]*eA*eG*eG*dG*d[5mC]*dA*dT*dT*d[5mC]*dT*dT*dT*d[5mC]*e[5mC]*eA*eT*eT*e[5mC]) [compound 227452]” to “227453 (antisense e[5mC]*eA*eT*eA*eA*dT*d[5mC]*dA*dG*dG*dG*d[5mC]*dA*dT*dT*e[5mC]*eT*eT*eT*e[5mC]) [compound 227453]”, the “% INHIB” value falls from 79% to 52%.

First: 227464 (antisense e[5mC]*e[5mC]*eT*eT*eT*dA*dA*dT*d[5mC]*dT*dT*dT*dG*dG*dA*eA*e[5mC]*eT*eG*eG) [compound 227464]
Second: 227468 (antisense eT*e[5mC]*eA*eT*e[5mC]*dA*dA*dT*dA*dT*d[5mC]*dT*dA*dG*d[5mC]*eT*e[5mC]*eA*eA*eT) [compound 227468]
The “% INHIB” value of the first is lower: 58% for the first, 62% for the second.

First: 227469 (antisense e[5mC]*eT*eT*eA*eG*dA*dA*dG*dT*d[5mC]*dT*dG*dT*d[5mC]*dT*eG*eT*eG*eT*e[5mC]) [compound 227469]
Second: 227475 (antisense e[5mC]*e[5mC]*eT*eG*e[5mC]*dT*dG*dG*dT*dG*dT*dA*dA*dT*dG*eT*e[5mC]*eG*e[5mC]*eT) [compound 227475]
The “% INHIB” value of the first is lower: 63% for the first, 68% for the second.

First: 227480 (antisense eA*eT*eG*eT*eA*dA*dA*dT*dG*dT*d[5mC]*d[5mC]*dT*d[5mC]*dT*eT*eG*eG*eT*eT) [compound 227480]
Second: 227481 (antisense eT*eG*eG*eT*eG*dA*dT*dG*dT*dA*dA*dA*dT*dG*dT*e[5mC]*e[5mC]*eT*e[5mC]*eT) [compound 227481]
The “% INHIB” value of the first is higher: 66% for the first, 45% for the second.

First: 227482 (antisense eT*eT*e[5mC]*eT*eG*dT*dG*dG*dT*dG*dA*dT*dG*dT*dA*eA*eA*eT*eG*eT) [compound 227482]
Second: 227483 (antisense eA*eG*eG*e[5mC]*eT*dT*dT*d[5mC]*dT*dG*dT*dG*dG*dT*dG*eA*eT*eG*eT*eA) [compound 227483]
The “% INHIB” value of the first is lower: 53% for the first, 75% for the second.

Compared with “227484 (antisense eT*eG*eG*eT*eA*dA*dG*dG*d[5mC]*dT*dT*dT*d[5mC]*dT*dG*eT*eG*eG*eT*eG) [compound 227484]”, “227488 (antisense eA*eG*eT*eT*eG*dG*dT*d[5mC]*dT*dG*dT*dG*d[5mC]*dT*d[5mC]*eA*e[5mC]*eA*eT*eA) [compound 227488]” is higher in “% INHIB” value: 63% for the first, 86% for the second.

Compared with “227489 (antisense eT*eG*eT*eT*e[5mC]*dA*dG*dT*dT*dG*dG*dT*d[5mC]*dT*dG*eT*eG*e[5mC]*eT*e[5mC]) [compound 227489]”, “227490 (antisense eG*e[5mC]*eA*eT*eG*dA*dT*dT*dT*dT*dG*dT*dT*d[5mC]*dA*eG*eT*eT*eG*eG) [compound 227490]” is lower in “% INHIB” value: 75% for the first, 67% for the second.

Going from “227499 (antisense eT*eA*eT*eA*eA*dA*dA*dG*dG*dG*d[5mC]*dT*dT*dT*dG*eT*eA*eA*eA*eA) [compound 227499]” to “227500 (antisense e[5mC]*eA*eT*eA*eG*d[5mC]*dA*dG*d[5mC]*dA*dA*dA*dG*dT*dA*eG*e[5mC]*eA*eG*eA) [compound 227500]”, the “% INHIB” value rises from 14% to 69%.

Going from “227501 (antisense eG*e[5mC]*eT*eA*eT*dT*dT*dT*dT*dG*dG*d[5mC]*dT*dA*dT*eA*eG*eA*eA*eA) [compound 227501]” to “227502 (antisense eG*eA*eT*eT*eG*dA*dG*dG*dT*dA*dT*dT*dT*dA*dG*e[5mC]*eT*eA*eT*eT) [compound 227502]”, the “% INHIB” value falls from 64% to 56%.

Compared with “272302 (antisense eG*eA*eT*e[5mC]*e[5mC]*dA*dT*dA*d[5mC]*d[5mC]*dT*dG*dT*dA*dG*eG*eA*e[5mC]*e[5mC]*eT) [compound 272302]”, “272303 (antisense e[5mC]*e[5mC]*eA*eG*eA*dG*dA*dT*d[5mC]*d[5mC]*dA*dT*dA*d[5mC]*d[5mC]*eT*eG*eT*eA*eG) [compound 272303]” is lower in “% INHIB” value: 60% for the first, 55% for the second.

Compared with “272304 (antisense eT*eG*e[5mC]*eT*eA*dA*dG*dG*dA*dT*dA*dG*d[5mC]*dT*dG*e[5mC]*eT*eG*eT*eG) [compound 272304]”, “272305 (antisense eT*eT*eG*eT*e[5mC]*dT*dT*dT*dA*dG*dG*d[5mC]*d[5mC]*dT*dG*eG*eA*eT*eT*eA) [compound 272305]” is higher in “% INHIB” value: 48% for the first, 68% for the second.

Going from “272306 (antisense eT*eT*eA*eG*eA*dA*dG*dA*dA*dT*dT*dT*dG*dT*d[5mC]*eT*eT*eT*eA*eG) [compound 272306]” to “272307 (antisense eG*eT*eG*eA*eA*dT*dT*dT*dA*dG*dG*d[5mC]*dT*d[5mC]*d[5mC]*eT*eT*eA*eG*eA) [compound 272307]”, the “% INHIB” value rises from 13% to 55%.

Going from “272308 (antisense eG*e[5mC]*eT*eG*eT*dA*dT*dG*dG*dG*dT*d[5mC]*d[5mC]*dT*dA*eG*eG*eT*eT*e[5mC]) [compound 272308]” to “272309 (antisense eT*eA*eA*e[5mC]*eA*dG*d[5mC]*dT*dG*dT*dT*dT*dT*d[5mC]*d[5mC]*e[5mC]*e[5mC]*eA*eG*e[5mC]) [compound 272309]”, the “% INHIB” value rises from 57% to 85%.

Going from “272310 (antisense eT*eT*eT*e[5mC]*eA*dT*d[5mC]*d[5mC]*dA*d[5mC]*dT*dG*dT*dA*d[5mC]*e[5mC]*eA*e[5mC]*e[5mC]*eA) [compound 272310]” to “272311 (antisense eT*eT*eG*e[5mC]*eA*d[5mC]*dT*dA*dT*dT*dT*d[5mC]*dA*dT*d[5mC]*eA*eA*e[5mC]*eA*eG) [compound 272311]”, the “% INHIB” value falls from 76% to 47%.

Going from “272312 (antisense eG*eG*eG*eT*eG*dG*dA*dT*d[5mC]*dT*dG*dG*dT*dT*dG*e[5mC]*eA*e[5mC]*eT*eA) [compound 272312]” to “272313 (antisense eA*eT*eT*eG*e[5mC]*dG*dT*dG*dG*dT*dG*d[5mC]*dT*dT*d[5mC]*e[5mC]*e[5mC]*eA*eT*e[5mC]) [compound 272313]”, the “% INHIB” value rises from 57% to 77%.

Compared with “272314 (antisense eT*eA*eG*eG*eG*dT*d[5mC]*d[5mC]*dA*dT*d[5mC]*dA*dT*dT*dT*eT*e[5mC]*e[5mC]*eA*eT) [compound 272314]”, “272315 (antisense e[5mC]*eA*eA*eT*eG*dA*dG*dT*dA*d[5mC]*dA*d[5mC]*dT*dG*dG*eA*eA*e[5mC]*eT*eG) [compound 272315]” is lower in “% INHIB” value: 56% for the first, 53% for the second.

Going from “272316 (antisense eA*eA*e[5mC]*eT*e[5mC]*dG*d[5mC]*d[5mC]*dA*dT*dA*dA*dT*dT*dT*e[5mC]*e[5mC]*eA*eG*eA) [compound 272316]” to “272317 (antisense eA*eG*e[5mC]*e[5mC]*e[5mC]*dA*dA*dA*dT*dA*dT*dT*d[5mC]*d[5mC]*dA*eA*eA*eG*eA*eT) [compound 272317]”, the “% INHIB” value rises from 64% to 65%.

First: 272318 (antisense eT*e[5mC]*eA*eG*e[5mC]*dA*dT*dT*dT*dT*dA*dA*dT*d[5mC]*d[5mC]*eT*eT*eT*eG*e[5mC]) [compound 272318]
Second: 272319 (antisense eA*eT*eT*eT*eT*d[5mC]*d[5mC]*dT*dT*d[5mC]*d[5mC]*dT*dT*dG*dA*eG*eG*eA*eG*eA) [compound 272319]
The “% INHIB” value of the first is lower: 55% for the first, 67% for the second.

Compared with “272320 (antisense eA*eG*eA*eT*eT*dG*dT*dG*dT*dT*d[5mC]*dA*d[5mC]*d[5mC]*dT*e[5mC]*e[5mC]*eT*e[5mC]*eT) [compound 272320]”, “272321 (antisense eA*eA*e[5mC]*e[5mC]*e[5mC]*dA*dA*dG*dA*dG*dT*d[5mC]*dA*dT*d[5mC]*eA*e[5mC]*eT*eG*eT) [compound 272321]” is lower in “% INHIB” value: 70% for the first, 64% for the second.

For “272322 (antisense e[5mC]*eT*eG*eG*e[5mC]*dT*d[5mC]*dA*dT*d[5mC]*dA*dA*dT*dA*dT*e[5mC]*eT*eA*eG*e[5mC]) [compound 272322]”, the “% INHIB” value was 84%.
